Values quoted from earlier work, collected in patent US6224863A, “Antibiotic composition from alcaligenes species and method for making and using the same” (University of South Carolina, priority 1998, dated 2001).

What was measured:
Staphylococcus aureus = settings: strains of Staphylococcus aureus
S. epidermidis = settings: strains of S. epidermidis

Compound	antibacterial activity (Staphylococcus aureus)	antibacterial activity (S. epidermidis)	antibiotic activity (other marine bacteria)	antibiotic activity (Vibrio harveyi)
C=C(CC/C=C\C=C\CC(C)CC(=O)CC(O)CNC(=O)C(C)C(C)OC(N)=O)CC(C)C/C(C)=C/C(=O)O (centres unmarked) [kalimantacin A]	only effective	only effective	–	–
Brc1[nH]c(Br)c(Br)c1Br [tetrabromopyrrole]	–	–	effective against other marine bacteria	–
CCCCCc1cc(O)c2ccccc2n1 [2-n-pentylquinolinol]	–	–	–	exhibits activity
C=C(CC/C=C/C=C/CC(C)CC(=O)CC(O)CNC(=O)C(C)C(C)OC(N)=O)CC(C)C/C(C)=C/C(=O)O (centres unmarked) [kalimantacin B]	only effective	only effective	–	–
C=C(CC/C=C\C=C\CC(C)CC(=O)CC(O)CNC(=O)CC(C)OC(N)=O)CC(C)C/C(C)=C/C(=O)O (centres unmarked) [kalimantacin C]	only effective	only effective	–	–
